These results are taken from article PMC5064445 (ACS infectious diseases, 2015).

For one data set, the target named is NDM-1 (Klebsiella pneumoniae, UniProt C7C422). As to the kind of experiment: Inhibition of NDM-1-catalyzed imipenem hydrolysis. The class given is biochemical. The conditions noted are these: relative to L-CS319.
Another data set deals with HeLa cells. As to the kind of experiment: Cytotoxicity assay. The class given is cell-based, human. The conditions noted are these: up to 500 μM; 24 h incubation.
In the next data set the test system is HEK 293 cells. As to the kind of experiment: Cytotoxicity assay. The class given is cell-based, human. The conditions noted are these: up to 500 μM; 24 h incubation.

NDM-1, sequence (C7C422 39-270 limits assumed): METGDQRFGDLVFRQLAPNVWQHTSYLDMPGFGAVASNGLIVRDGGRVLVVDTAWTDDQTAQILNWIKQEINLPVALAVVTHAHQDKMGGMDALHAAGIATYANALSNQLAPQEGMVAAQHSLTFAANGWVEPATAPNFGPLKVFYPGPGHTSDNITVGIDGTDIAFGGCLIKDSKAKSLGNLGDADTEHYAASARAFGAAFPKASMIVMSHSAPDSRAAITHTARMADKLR

As for `CC1(C)S[C@@H]2CS[C@@H](CS)N2[C@H]1C(=O)O` [D-VC26, (2S,5R,8S)-2-Mercaptomethyl-7-dimethyl-8-carboxylate-1-aza-3,6-dithiobicyclo[3.3.0]octane], the “times less active than L-CS319 (in vitro NDM-1 inhibition)” value on NDM-1 is roughly 2 times.

`O=C(O)[C@@H]1CS[C@H]2CS[C@H](CS)N21` [L-CS319, (2R,5S,8R)-8-Carboxylate-2-mercaptomethyl-1-aza-3,6-dithiobicyclo[3.3.0]octane]: the “toxic effects against HeLa cells” value in the data set with HeLa cells was “did not show toxic effects”. In the data set with HEK 293 cells, the “toxic effects against Hek 293 cells” value is “did not show toxic effects”.
